Experiments:
[1] = test system: HFF1 normal human foreskin fibroblasts; assay: MTT viability assay; format: cell-based; conditions: 20 µg Cypep-1/ml, 60 min incubation
Description: (§1) Cypep-1 was tested in various concentrations on a total of 17 cell lines, which included 13 human and 1 murine tumour cell line(s), as well as 3 normal human cell lines. Listed in detail: 4 human osteosarcoma (U2OS, SaOS2, HOS and MNNG-HOS), 6 human glioblastoma (A172, GaMg, LN18, U87, U373 and T98G) and 3 human mammary carcinoma cell lines (MCF7, AU565 and MDA-MB-468) as well as an additional murine mammary carcinoma cell line (4T1). Furthermore, 3 normal human cell lines were included: 2 normal human fibroblast cell lines (HFF1 and 142Br) as well as normal human osteoblasts (HOB).
(§2) All normal human cell lines were purchased from Promo Cell (Heidelberg, Germany). While the normal human foreskin fibroblasts (HFF1) were grown in DMEM medium as described above, the additional human skin fibroblast cell line (142Br) and the normal human osteoblasts (HOB) were cultured in purchased cell type specific growth mediums (Promo Cell, Heidelberg, Germany).
(§3) MTT proliferation assays were performed on all cell lines (with the exception of 142Br (human skin fibroblasts)), using monolayers of 15 000 cells in sterile 96 well tissue culture plates (Nunc™, Roskilde, Denmark), respectively. […]

[2] = test system: HOB normal human osteoblasts; assay: MTT viability assay; format: cell-based; conditions: 20 µg Cypep-1/ml, 60 min incubation
Description: as §1, §2, §3

all cancer cell lines = assay: MTT viability assay, average of all cancer cell lines; format: cell-based; conditions: 20 µg Cypep-1/ml, 60 min exposure
Description: as §1
(§4) MTT proliferation assays were performed on all cell lines (with the exception of 142Br (human skin fibroblasts)), using monolayers of 15 000 cells in sterile 96 well tissue culture plates (Nunc™, Roskilde, Denmark), respectively. All cells were incubated with Cypep-1 dissolved in 0.9% NaCl, at the following concentrations: 0.1, 0.5, 1.0, 5, 10, 15, 20, 25, 30 and 35µg of Cypep-1 per ml and assayed after 15, 30, 45, 60, 75, 90, 180, 270 and 360 min.

glioblastoma GaMg = assay: MTT viability assay; format: cell-based, human; conditions: 20 µg Cypep-1/ml, 60 min incubation, least sensitive cell line
Description: as §1, §4

mammary carcinoma AU 565 = assay: MTT viability assay; format: cell-based, human; conditions: 20 µg Cypep-1/ml, 60 min incubation, most sensitive cell line
Description: as §1, §4

## YGRKKRRQRRRGKTLRVAKAIYKRYIE [Cypep-1]
[1]
  survival rate: 66%
[2]
  survival rate: 44%
All cancer cell lines
  surviving fraction, average of all cancer cell lines: 18.6%
Glioblastoma GaMg
  average surviving fraction: 33%
Mammary carcinoma AU 565
  average surviving fraction: 7%
